# Test system: whole cell CS levels in MCF-7
# Assay: Whole cell cholesterol sulfate quantification, MCF-7
# Format: cell-based, human
# Settings: MCF-7, 6.25 μM compound, 72 hours
# Procedure: (§1) General Whole Cell Cholesterol Sulfate Quantification. 60×15 mm tissue culture dishes were seeded with MCF-7 at 2×10^6 cells/dish or T47D at 1×10^6 cells per dish, 5 mL total media volume, and allowed to adhere overnight. Compounds of interest were dissolved in DMSO. Cells were treated with 25 μL 1.25 mM compound of interest stock (6.25 μM final compound concentration, 0.5% final DMSO concentration) or DMSO for 72 hours. To harvest, media was aspirated, and cells were washed once with PBS before detaching with trypsin. Trypsin was quenched with media. Cells were centrifuged at 300 xg for 3 minutes and supernatant was discarded. Cells were resuspended in media and counted using a Countess 3 automated cell counter (Thermo Fisher Scientific). 1.5×10^6 cells were collected, washed twice with 1 mL PBS, then pelleted and stored at −80° C. until lysis. Cell pellets were resuspended in 200 μL cold 70:30 methanol:water and placed on ice. Cell suspension was sonicated on ice (30%, 10 s on, 20 s off, 1 min total) and continued to be incubated on ice for 30 minutes. Lysate was clarified by centrifugation at 14,100 xg at 4° C. for 30 minutes. 100 μL of supernatant was transferred to an empty Eppendorf tube and submitted for LC-MS/MS quantification (UIUC Metabolomics Center), along with 5 mM cholesterol sulfate sodium salt standard.
# as §1, with “Time Course Whole Cell” for “General Whole Cell”, “2×10^6 cells/dish per dish,” for “2×10^6 cells/dish or T47D at 1×10^6 cells per dish,”, “DMSO for 0 (harvested immediately), 4, 8, 24, 48, or 72 hours.” for “DMSO for 72 hours.”
# Whole Cell Cholesterol Sulfate Quantification with Compound Removal. 60×15 mm tissue culture dishes were seeded with MCF-7 at 2×10^6 cells/dish, 5 mL total media volume, and allowed to adhere overnight. Compounds of interest were dissolved in DMSO. Cells were treated with 25 μL 1.25 mM compound of interest stock (6.25 μM final compound concentration, 0.5% final DMSO concentration) for 0 hours (harvested immediately) or 24 hours. Media was aspirated and replaced with 5 mL fresh media, then cells were either harvested (24 hour time point) or further incubated. To harvest, media was aspirated, and cells were washed once with PBS before detaching with trypsin. Trypsin was quenched with media. Cells were centrifuged at 300 xg for 3 minutes and supernatant was discarded. Cells were resuspended in media and counted using a Countess 3 automated cell counter (Thermo Fisher Scientific). 1.5×10^6 cells were collected, washed twice with 1 mL PBS, then pelleted and stored at −80° C. until lysis. Cell pellets were resuspended in 200 μL cold 70:30 methanol:water and placed on ice. Cell suspension was sonicated on ice (30%, 10 s on, 20 s off, 1 min total) and continued to be incubated on ice for 30 minutes. Lysate was clarified by centrifugation at 14,100 xg at 4° C. for 30 minutes. […]
row,SMILES,whole cell CS levels vs DMSO
1,"CN1C(=O)CC[C@@]2(C)C1=CC[C@@H]1[C@@H]2C(=O)C[C@]2(C)C(=O)CC[C@@H]12 [Compound 6, (4aR,4bS,6aS,9aS,9bS)-1,4a,6a-trimethyl-3,4,4a,6,6a,8,9,9a,9b,10-decahydro-1H-indeno[5,4-f]quinoline-2,5,7(4bH)-trione]",not seen

# Same assay, conditions: MCF-7, sub-lethal 0.156 μM, 72 hours
row,SMILES,whole cell CS levels vs DMSO
1,"O=CC1(C2(C=O)c3ccccc3-c3ccccc32)c2ccccc2-c2ccccc21 [Raptinal, reference compound]",no significant difference

# Test system: free cholesterol levels in MCF-7
# Assay: Whole cell cholesterol assay
# Format: cell-based, human
# Settings: MCF-7, 6.25 μM, 72 hours
# Procedure: Whole Cell Cholesterol Assay. Assay was run according to manufacturer's instructions. Briefly, 5000 MCF-7 cells were plated in 99 μL media in a 96-well plate and allowed to adhere overnight before DMSO solutions of compounds were added to each well. Final concentration of DMSO in each well is 1%, final volume: 100 μL. At the end of 72 hours, media was aspirated, and cells were washed twice with 100 μL PBS. 50 μL of cholesterol lysis solution was added and cells were incubated for 30 minutes at 37° C. 50 μL of sample was then transferred to a 96-well white walled assay plate. 50 μL of cholesterol detection reagent was added to all wells and incubated at room temperature for 1 hour. Luminescence was read using a SpectraMax M3 plate reader (Molecular Devices). Cholesterol levels were determined by use of a cholesterol standard curve.
row,SMILES,free cholesterol levels vs DMSO
1,"CN1C(=O)CC[C@@]2(C)C1=CC[C@@H]1[C@@H]2C(=O)C[C@]2(C)C(=O)CC[C@@H]12 [Compound 6, (4aR,4bS,6aS,9aS,9bS)-1,4a,6a-trimethyl-3,4,4a,6,6a,8,9,9a,9b,10-decahydro-1H-indeno[5,4-f]quinoline-2,5,7(4bH)-trione]",no statistical difference

# Biological target: SULT2B1b (Homo sapiens (Human), UniProt O00204)
# Assay: LC-MS/MS based in vitro assay (DHEA-sulfate formation)
# Format: biochemical
# Settings: 100 μM compound, 2 hours; mean±s.e.m., n=3
# Procedure: LC-MS/MS Based In Vitro Assay. Stock solutions of DHEA (5 mM in DMSO) and compound of interest (5 mM in DMSO) were prepared. […] SULT2B1b was diluted to 1.5 μg/μL in protein storage buffer then down to 0.8 μg/μL in 1× activity assay buffer. 30 μL of 0.8 μg/μL SULT2B1b was added to each reaction. Reactions were incubated for 2 hours at 37° C. with shaking at 250 rpm. To quench, 30 μL reaction mix was added to 30 μL ice cold 0.5% HCl in MeCN, then centrifuged at 13,000 xg at room temperature for 3 min. 50 μL supernatant was transferred to an empty Eppendorf tube and submitted for LC-MS/MS quantification (UIUC Metabolomics Center), along with 5 mM DHEA sulfate standard. Controls: Reaction mix made with DHEA and DMSO in place of compound of interest (DHEA control). […] General LC-MS/MS Quantification Method. Both DHEAS and CS samples were analyzed by 6500 QTRAP (Sciex, Redwood City, CA) liquid chromatography-tandem mass spectrometry. […] The flow rate was 0.3 mL/min. […] The source temperature was 400° C. […] Cholesterol-sulfate and DHEA-sulfate were detected by multiple reaction monitoring (MRM) at m/z 465→97.0 and 367.0→97.0 respectively. Software Analyst 1.7.1 ([…]) was used for data acquisition and analysis.
# Chain of SULT2B1b (O00204 whole entry): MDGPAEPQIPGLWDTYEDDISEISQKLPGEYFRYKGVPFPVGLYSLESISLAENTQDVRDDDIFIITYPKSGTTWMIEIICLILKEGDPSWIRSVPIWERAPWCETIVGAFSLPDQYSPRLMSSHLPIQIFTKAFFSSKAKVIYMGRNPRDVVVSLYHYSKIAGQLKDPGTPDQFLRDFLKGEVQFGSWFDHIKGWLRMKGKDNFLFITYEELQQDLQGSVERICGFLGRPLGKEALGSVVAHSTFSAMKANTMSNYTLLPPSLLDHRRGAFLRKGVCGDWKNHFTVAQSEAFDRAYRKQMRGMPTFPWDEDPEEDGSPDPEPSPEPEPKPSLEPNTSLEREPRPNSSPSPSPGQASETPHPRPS
row,SMILES,inhibition at 100 µM [%]
1,"C[C@]12CCC(=O)N(Cc3ccc(F)cc3)C1=CC[C@@H]1[C@@H]2C(=O)C[C@]2(C)C(=O)CC[C@@H]12 [Compound 4, (4aR,4bS,6aS,9aS,9bS)-1-(4-fluorobenzyl)-4a,6a-dimethyl-3,4,4a,6,6a,8,9,9a,9b,10-decahydro-1H-indeno[5,4-f]quinoline-2,5,7(4bH)-trione]",55 ± 2
2,"C[C@]12CCC(=O)N(Cc3ccccc3)C1=CC[C@@H]1[C@@H]2C(=O)C[C@]2(C)C(=O)CC[C@@H]12 [Compound 5, (4aR,4bS,6aS,9aS,9bS)-1-benzyl-4a,6a-dimethyl-3,4,4a,6,6a,8,9,9a,9b,10-decahydro-1H-indeno[5,4-f]quinoline-2,5,7(4bH)-trione]",48 ± 2
3,"CN1C(=O)CC[C@@]2(C)C1=CC[C@@H]1[C@@H]2C(=O)C[C@]2(C)C(=O)CC[C@@H]12 [Compound 6, (4aR,4bS,6aS,9aS,9bS)-1,4a,6a-trimethyl-3,4,4a,6,6a,8,9,9a,9b,10-decahydro-1H-indeno[5,4-f]quinoline-2,5,7(4bH)-trione]",8.8 ± 0.4
4,"C[C@]12CCC(=O)N(Cc3cccc(Cl)c3)C1=CCC1[C@@H]2C(=O)C[C@]2(C)C(=O)CC[C@@H]12 (stereo partly drawn) [Compound 7, (4aR,4bS,6aS,9aS,9bS)-1-(3-chlorobenzyl)-4a,6a-imethy-3,4,4a,6,6a,8,9,9a,9b,10-decahydro-1H-indeno[5,4-f]quinoline-2,5,7(4bH)-trione]",69.8 ± 0.5
5,"C[C@]12CCC(=O)N(Cc3ccccc3Cl)C1=CC[C@@H]1[C@@H]2C(=O)C[C@]2(C)C(=O)CC[C@@H]12 [Compound 8, (4aR,4bS,6aS,9aS,9bS)-1-(2-chlorobenzyl)-4a,6a-dimethyl-3,4,4a,6,6a,8,9,9a,9b,10-decahydro-1H-indeno[5,4-f]quinoline-2,5,7(4bH)-trione]",46 ± 1
6,"C[C@]12CCC(=O)N(Cc3ccc(Cl)cc3)C1=CC[C@@H]1[C@@H]2CC[C@]2(C)C(=O)CC[C@@H]12 [Compound 9, (4aR,4bS,6aS,9aS,9bR)-1-(4-chlorobenzyl)-4a,6a-dimethyl-3,4,4a,4b,5,6,6a,8,9,9a,9b,10-dodecahydro-1H-indeno[5,4-f]quinoline-2,7-dione]",53 ± 1
7,"C[C@]12CCC(=O)N(Cc3ccc(Cl)cc3)C1=CC[C@@H]1[C@@H]2C(=O)C[C@@]2(C)[C@H]1CCC21OCCO1 [Compound 10, (4aR,4bS,6aS,9aS,9bS)-1-(4-chlorobenzyl)-4a,6a-dimethyl-1,3,4,4a,4b,6,6a,8,9,9a,9b,10-dodecahydrospiro[indeno[5,4-f]quinoline-7,2′-[1,3]dioxolane]-2,5-dione]",45 ± 1
8,"C[C@]12CCC(=O)N(Cc3ccc(Br)nc3)C1=CC[C@@H]1[C@@H]2C(=O)C[C@]2(C)C(=O)CC[C@@H]12 [Compound 11, (4aR,4bS,6aS,9aS,9bS)-1-((6-bromopyridin-3-yl)methyl)-4a,6a-dimethyl-3,4,4a,6,6a,8,9,9a,9b,10-decahydro-1H-indeno[5,4-f]quinoline-2,5,7(4bH)-trione]",53 ± 1
9,"C[C@]12CCC(=O)N(Cc3ccc4ccccc4c3)C1=CC[C@@H]1[C@@H]2C(=O)C[C@]2(C)C(=O)CC[C@@H]12 [Compound 12, (4aR,4bS,6aS,9aS,9bS)-4a,6a-dimethyl-1-(naphthalen-2-ylmethyl)-3,4,4a,6,6a,8,9,9a,9b,10-decahydro-1H-indeno[5,4-f]quinoline-2,5,7(4bH)-trione]",52 ± 10
10,"C[C@]12CCC(=O)N(CC3CC3)C1=CC[C@@H]1[C@@H]2C(=O)C[C@]2(C)C(=O)CC[C@@H]12 [Compound 13, (4aR,4bS,6aS,9aS,9bS)-1-(cyclopropylmethyl)-4a,6a-dimethyl-3,4,4a, 6,6a, 8,9,9a, 9b,10-decahydro-1H-indeno[5,4-f]quinoline-2,5,7(4bH)-trione]",27 ± 2
11,"C[C@]12CCC(=O)N(CC3CCCCC3)C1=CC[C@@H]1[C@@H]2C(=O)C[C@]2(C)C(=O)CC[C@@H]12 [Compound 14, (4aR,4bS, 6aS, 9aS, 9bS)-1-(cyclohexylmethyl)-4a, 6a-dimethyl-3,4,4a, 6,6a, 8,9,9a, 9b,10-decahydro-1H-indeno[5,4-f]quinoline-2,5,7(4bH)-trione]",48 ± 2

# Source: US20240400606A1, “SMALL MOLECULE ACTIVATORS OF THE IMMUNE SYSTEM” (THE BOARD OF TRUSTEES OF THE UNIVERSITY OF ILLINOIS, priority 2021, published 2024)
